{
  "source": "patent US20200207835A1",
  "about": "“SRCP1-BASED THERAPY FOR DISEASES ASSOCIATED WITH PROTEIN AGGREGATION” (THE MEDICAL COLLEGE OF WISCONSIN, INC., priority 2017, published 2020)",
  "molecules": {"B1": {"name": "^RFPSRCP1^ST1: SRCP1 with all N-terminal serine and threonine residues mutated to alanine (protein)", "chain": "MAILAAFAAFANPPKLNKAAFAAAAGAALAMGANAFAWGGGWGGFGGPKGGSFNVDIAGNLIWGVYGFIRGGVGLVKWRGLQKGCKQP", "modifications": "left off: large carriers", "notes": "SRCP1 with all N-terminal serine and threonine residues mutated to alanine"}, "B2": {"name": "^RFPSRCP1^71-80A: SRCP1 with amino acids 71-80 mutated to alanine (protein)", "chain": "MTILSTFTSFSNPPKLNKSSFSSSTGSSLSMGSNSFAWGGGWGGFGGPKGGSFNVDIAGNLIWGVYGFIRAAAAAAAAAALQKGCKQP", "modifications": "left off: large carriers", "notes": "SRCP1 with amino acids 71-80 mutated to alanine"}, "B3": {"name": "^RFPSRCP1^61-70A: SRCP1 with amino acids 61-70 mutated to alanine (protein)", "chain": "MTILSTFTSFSNPPKLNKSSFSSSTGSSLSMGSNSFAWGGGWGGFGGPKGGSFNVDIAGNAAAAAAAAAAGGVGLVKWRGLQKGCKQP", "modifications": "left off: large carriers", "notes": "SRCP1 with amino acids 61-70 mutated to alanine"}, "B4": {"name": "^RFPSRCP1^V65A: SRCP1 point mutant, V65 mutated to alanine (protein)", "chain": "B3 chain with A61L, A62I, A63W, A64G, A66Y, A67G, A68F, A69I, A70R", "modifications": "left off: large carriers", "notes": "SRCP1 point mutant, V65 mutated to alanine"}, "B5": {"name": "^RFPSRCP1^I69A: SRCP1 point mutant, I69 mutated to alanine (protein)", "chain": "B3 chain with A61L, A62I, A63W, A64G, A65V, A66Y, A67G, A68F, A70R", "modifications": "left off: large carriers", "notes": "SRCP1 point mutant, I69 mutated to alanine"}},
  "key": {"^GFPHtt^ex1Q74": {"tested_on": "^GFPHtt^ex1Q74", "assay": "GFPHttex1Q74 aggregation in transfected HEK293 cells (fluorescent/confocal microscopy, western blot, filter trap assay)", "type": "cell-based, human", "conditions": "for ability of SRCP1 mutant to suppress GFPHttex1Q74 aggregation: HEK293, 48 hours post-transfection, western blot and fluorescent microscopy; for ability of SRCP1 point mutant to suppress GFPHttex1Q74 aggregation: HEK293, fluorescence microscopy", "experimental": "Transfections were performed with Lipofectamine 2000 (Invitrogen by ThermoFisher Scientific) and adapted from the manufacturer's instructions. Briefly, cells were plated on either 12-well or 6-well plates and transfected at 50-70% confluency. For 12-well transfections, 0.833 μg of DNA per well was mixed with 50 μl of OptiMEM (Gibco by Life Technologies) media and incubated for 5 minutes at room temperature. Lipofectamine 2000 in a 2:1, μl of lipofectamine: μg DNA ratio was mixed with 50 μl of OptiMEM media and incubated for 5 minutes at room temperature. DNA and Lipofectamine were mixed and incubated for 15 minutes at room temperature. Fresh media was added to cells prior to the addition of DNA and lipofectamine. For 6-well transfections, the same protocol is followed except that 1.25 μg of DNA per well and 100 μl of OptiMEM for dilution was used. Media was changed 24 hours post-transfection and cells were harvested 48 hours post-transfection. Prior to harvesting, HEK293 cells were washed three times with ice-cold 1×PBS. Samples were then lysed with either 150 μl of ice-cold NETN (with protease inhibitor) or 1× Laemmli Buffer and sonicated twice for 5-8 seconds.\nFor proteasome inhibition, 30 hours post-transfection cells would be replenished with DMEM containing either DMSO or 10 μM MG132 (Sigma-Aldrich) for 18 hours. Prior to harvesting, HEK293 cells were washed three times with ice-cold 1×PBS and imaged by fluorescent microscopy with a 20× objective using the Evos FL Auto Imaging System. Cells were then lysed with either 150 μl of ice-cold NETN (with protease inhibitor) or 1× Laemmli Buffer and sonicated twice for 5-8 seconds.\nFor autophagy inhibition, 24 hours post-transfection cells would be replenished with DMEM and treated with either DMSO or 5 mM 3-Methyladenine (Sigma-Aldrich) for an additional 24 hours. Prior to harvesting, HEK293 cells were washed three times with ice-cold 1×PBS and imaged by fluorescent microscopy with a 20× objective using the Evos FL Auto Imaging System. Cells were then lysed with either 150 μl of ice-cold NETN (with protease inhibitor) or 1× Laemmli Buffer and sonicated twice for 5-8 seconds.\nFor HEK293s′, slides were prepared by placing coverslips in 6-well plates and incubating with poly-L-lysine hydrobromide (Sigma-Aldrich) for an hour at room temperature. Coverslips were rinsed with 1×PBS three times prior to plating HEK293 cells. HEK293 cells were then transfected and fixed by incubation in 4% paraformaldehyde for 20 minutes at room temperature. Coverslips were mounted with ProLong Gold Antifade reagent and imaged with a 20× objective using the Evos FL Auto Imaging System or with a 40× objective using the Leica TCS SP5 Confocal Microscope System. For confocal, Z-stack images were obtained at […] intervals at 1024×1024 pixel resolution and merged using Fiji.\n(§1) Following sonication, lysates were subjected to BCA protein assay (ThermoFisher Scientific) and prepared for loading by the addition of 4× laemmli buffer and boiling for four minutes. Samples then loaded on SDS-polyacrylamide gels, ran at 175 V, and transferred onto an Immuno-blot PVDF membrane (Biorad) overnight at 30 V. Membranes were blocked in 5% milk in TBS with 0.1% Tween (TBST) and incubated in primary antibody overnight at 4° C. Following primary, membranes were washed for 10 minutes at room temperature three times with TBST and incubated in secondary for an hour at room temperature. Membranes were then washed for 10 minutes at room temperature three times with TBST and then incubated in buffer for enhanced chemiluminescence (50 mM Na2HPO4; 50 mM Na2CO3; 10 mM NaBO3.4H2O; 250 mM luminol; 90 mM coumaric acid).\nFor HEK293 lysates, BCA protein assay was used to determine protein concentration. […]"}, "^GFPHtt^ex1Q103": {"tested_on": "^GFPHtt^ex1Q103", "type": "cell-based, Dictyostelium discoideum", "conditions": "Dictyostelium", "experimental": "For proteasome inhibition, 5×10^6 cells were incubated with either DMSO or 100 μM MG132 (Sigma-Aldrich) for 18 hours. Following treatment, cells were imaged and/or harvested by spinning at 500 g at room temperature for 5 minutes. Cell pellets were washed three times with 1×PBS and lysed with ice-cold NETN (with protease inhibitor). Lysates were then sonicated twice for 10-15 seconds. To verify inhibition, samples were run on SDS-PAGE and analyzed by western blot for ubiquitin.\nFor Hsp70 inhibition, 1×10^7 cells were incubated either with DMSO or 80 μM VER155008 (ApexBio) for 24 hours. Following treatments, cells were imaged and/or harvested by spinning at 500 g at room temperature for 5 minutes. Cell pellets were washed three times with 1×PBS and lysed with ice-cold NETN (with protease inhibitor). Lysates were then sonicated twice for 10-15 seconds. To verify inhibition, samples were run on SDS-PAGE and analyzed by western blot for ATG8.\nFor Dictyostelium cells, 1×10^7 cells were washed three times with ice-cold starvation buffer and then imaged with a 20× objective using the Evos FL Auto Imaging System."}, "ubiquitinated species": {"tested_on": "ubiquitinated species", "assay": "Western blot for ubiquitin after proteasome inhibition in Dictyostelium", "type": "cell-based, Dictyostelium discoideum", "conditions": "increasing concentrations of MG132, 18 hours", "experimental": "Following treatment, cells were imaged and/or harvested by spinning at 500 g at room temperature for 5 minutes. Cell pellets were washed three times with 1×PBS and lysed with ice-cold NETN (with protease inhibitor). Lysates were then sonicated twice for 10-15 seconds. To verify inhibition, samples were run on SDS-PAGE and analyzed by western blot for ubiquitin.\nas §1"}, "ATG8": {"tested_on": "ATG8", "conditions": "150 mM NH4Cl, 8 hours", "protocol": "For autophagy inhibition, 1×10^7 cells were incubated either with vehicle or 150 μM NH4Cl (Sigma-Aldrich) for 8 hours. Following treatments, cells were imaged by fluorescent microscopy and plated on coverslips at a density of 2×10^6 cells per ml and allowing cells to adhere. Cells were then washed three times with 1×PBS and fixed with 100% ice-cold methanol at −20° C. for 10 minutes. Methanol was aspirated and cells were washed twice with 1×PBT (0.1% Triton X, 0.5% BSA in 1×PBS), incubated in blocking buffer (1% Triton X, 2% BSA in 1×PBT) for 30 minutes at room temperature, and put in primary Rb anti ATG8a (courtesy of Jason King, University of Sheffield) (1:5000) overnight at 4° C. Following primary cells were washed three times with 1×PBT and incubated in secondary goat anti rabbit (Jackson ImmunoResearch Laboratories; 711-166-152) for 2 hours at room temperature. Following secondary, cells were washed an additional three times with 1×PBT and mounted on slides with ProLong Gold Antifade reagent (Invitrogen by ThermoFisher Scientific). Slides were imaged with a Nikon eclipse 90i confocal microscope."}, "Htt^Q46": {"target": "T1, Htt^Q46 (Homo sapiens, UniProt P42858, INS38QQQQQQQQQQQQQQQQQQQQQQQQQ)", "T1 construct": "Huntingtin exon-1 with 46 glutamines (Htt^Q46) in pET-32 was obtained from Addgene; pET-32 fusion tag (N, cleaved yes); host or cells: E. coli BL21", "T1 sequence (P42858 with tags, fused parts or gaps with the stated changes)": "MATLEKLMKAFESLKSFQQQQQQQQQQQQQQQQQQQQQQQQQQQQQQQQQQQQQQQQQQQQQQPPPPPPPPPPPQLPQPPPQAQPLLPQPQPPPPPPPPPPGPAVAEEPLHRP", "assay": "Thioflavin-T in vitro HttQ46 aggregation assay", "type": "biochemical", "conditions": "3:1 peptide to HttQ46", "experimental": "Huntingtin exon-1 with 46 glutamines (Htt^Q46) in pET-32 was obtained from Addgene. Htt^Q46 was grown in BL21 cells at 37° C. to an optical density of 0.6 and induced with IPTG at 1 mM overnight at 16° C. After induction cells were spun down at 7,000 rpm for 5 minutes and resuspended in resuspension buffer (15 mM Tris-HCl buffer, pH 8.0). For lysis, lysozyme was added and cells were incubated at 4° C. for 45 minutes. To obtain soluble fraction, lysates were spun down at 12,000 rpm for 10 minutes, after which supernatant was added to 3 ml of Ni-beads (GoldBio) per 100 ml of lysate and tumbled for 4 hours at 4° C. Beads were then washed three times with resuspension buffer and then washed three more times with wash buffer (50 mM Tris-HCl pH 8.0, 150 mM NaCl, 1 mM PMSF, 1 mM EDTA). Protein was then eluted off beads by tumbling overnight at 4° C. in 25 mL of wash buffer with 250 mM imidazole.\nAggregation assays were performed as previously described in Kakkar, V. et al. Briefly, 15 μM Htt^46Q was mixed with 90 μM SRCP1 peptide (GenScript) (1:6, 1:3, 1:1.5) and 10 μM Thioflavin-T (Sigma-Aldrich). All samples were prepared on ice in buffer containing 20 mM Tris-HCl pH 8.0, 50 mM NaCl, 2 mM CaCl2). […] Fluorescence was measured with the excitation at 440 nm and emission at 480 nm, every 5 minutes using a Tecan Plate reader."}, "[1]": {"assay": "Solubility of SRCP1 peptide in vitro", "type": "physicochemical", "conditions": "data not shown"}, "[2]": {"conditions": "HEK293, 5 mM 3-MA for 24 hours, without SRCP1"}, "[3]": {"conditions": "HEK293, 10 μM MG132 for 18 hours, absence of RFPSRCP1"}},
  "note": "Substitutions are numbered along the chain they refer to. In names and notes the source's numbering stands. Where two headings read alike, the source gives them in different places. Residues, ends and D or L forms follow the SMILES beside them. No end group written: not given here. *: point of attachment. Cbz = O=C(OCc1ccccc1)*",
  "data": [
    {"molecule": "Cn1cnc(N)c2ncnc1-2", "note": "[3-MA, 3-Methyladenine, reference compound]", "values": [
      {"measurement": "aggregated GFPHttex1Q74", "setting": "^GFPHtt^ex1Q74; [2]", "result": "significant increase in soluble and aggregated"},
      {"measurement": "soluble GFPHttex1Q74", "setting": "^GFPHtt^ex1Q74; [2]", "result": "significant increase in soluble and aggregated"}
    ]},
    {"molecule": "CC(C)C[C@@H](C=O)NC(=O)[C@H](CC(C)C)NC(=O)[C@H](CC(C)C)NC(=O)OCc1ccccc1", "note": "[MG132, reference compound] (Cbz-Leu-Leu-Leu-aldehyde)", "values": [
      {"measurement": "accumulation of aggregated GFPHttex1Q103", "setting": "^GFPHtt^ex1Q103; 100 μM MG132, 18 hours", "result": "does not result in an accumulation of aggregated"},
      {"measurement": "accumulation of ubiquitinated species", "setting": "ubiquitinated species", "result": "leads to an accumulation of ubiquitinated species"},
      {"measurement": "insoluble GFPHttex1Q74", "setting": "^GFPHtt^ex1Q74; [3]", "result": "increased in both the insoluble and soluble fraction"},
      {"measurement": "soluble GFPHttex1Q74", "setting": "^GFPHtt^ex1Q74; [3]", "result": "increased in both the insoluble and soluble fraction"}
    ]},
    {"molecule": "Cl.N", "note": "[NH4Cl]", "values": [
      {"measurement": "accumulation of aggregated GFPHttex1Q103", "setting": "^GFPHtt^ex1Q103; 150 mM NH4Cl, 8 hours", "result": "does not lead to accumulation of aggregated"},
      {"measurement": "ATG8 puncta", "setting": "ATG8", "result": "leads to an accumulation of large ATG8 puncta"}
    ]},
    {"molecule": "LIWGVYGFIR [SEQ ID NO:5, peptide of SRCP1 amino acids 61-70]", "values": [
      {"measurement": "HttQ46 aggregation in vitro, individual domain peptides", "setting": "Htt^Q46", "result": "sufficient to suppress Htt^Q46 aggregation in vitro"}
    ]},
    {"molecule": "LIWGVYGFIRGGVGLVKWRG [SEQ ID NO:9]", "values": [
      {"measurement": "solubility in vitro", "setting": "[1]", "result": "remained soluble in vitro"}
    ]},
    {"molecule": "VI-A: SRCP1 61-70 peptide with amino acids V65 and I69 mutated to alanine (LIWGAYGFAR)", "values": [
      {"measurement": "HttQ46 aggregation in vitro, individual domain peptides", "setting": "Htt^Q46", "result": "loss in activity"}
    ]},
    {"molecule": "B1", "values": [
      {"measurement": "ability of SRCP1 mutant to suppress GFPHttex1Q74 aggregation", "setting": "^GFPHtt^ex1Q74", "result": "did not disrupt SRCP1's ability to suppress polyQ aggregation"}
    ]},
    {"molecule": "B2", "values": [
      {"measurement": "ability of SRCP1 mutant to suppress GFPHttex1Q74 aggregation", "setting": "^GFPHtt^ex1Q74", "result": "retained full activity"}
    ]},
    {"molecule": "B3", "values": [
      {"measurement": "ability of SRCP1 mutant to suppress GFPHttex1Q74 aggregation", "setting": "^GFPHtt^ex1Q74", "result": "lost the ability to suppress"}
    ]},
    {"molecule": "B4", "values": [
      {"measurement": "ability of SRCP1 point mutant to suppress GFPHttex1Q74 aggregation", "setting": "^GFPHtt^ex1Q74", "result": "resulted in a decrease in SRCP1 function"}
    ]},
    {"molecule": "B5", "values": [
      {"measurement": "ability of SRCP1 point mutant to suppress GFPHttex1Q74 aggregation", "setting": "^GFPHtt^ex1Q74", "result": "resulted in a decrease in SRCP1 function"}
    ]}
  ]
}
